Experiments:
Format in all cases: in vivo
Parameters in all cases: key: 5: completely killed; 4: seriously injured; 3: considerably injured; 2: somewhat injured; 1: slightly injured; 0: not injured (normally grown)
rice [1] = experiment: Experiment 2 foliage treatment: rice; conditions: 4 weeks after treatment
Experimental: (§1) Upon seedling stage (two- or three-leaved stage) of rice, cockspur (Panicum crus-galli), garden radish, aobiyu (slender amaranth, Amaranthus viridis) and mehishiba (henry crabgrass, Digitaria cliaris) which were grown on a cultivated soil put in pots of 1/15500 ares, a selected compound obtained in a manner analogous to Example 8, in suspended wettable powder, was sprayed to each plant. After that, the pots were kept in a glass chamber to allow each plant to grow, and after the lapse of 4 weeks from the treatment with the selected compounds the herbicidal effects were evaluated. The evaluation of the herbicidal effects was similarly conducted as to that of Experiment 1.

[2] = test system: cockspur (Panicum crus-galli); experiment: Experiment 2 foliage treatment: cockspur; conditions: 4 weeks after treatment
Experimental: as §1

garden radish [3] = experiment: Experiment 2 foliage treatment: garden radish; conditions: 4 weeks after treatment
Experimental: as §1

[4] = test system: aobiyu (slender amaranth, Amaranthus viridis); experiment: Experiment 2 foliage treatment: aobiyu; conditions: 4 weeks after treatment
Experimental: as §1

[5] = test system: mehishiba (henry crabgrass, Digitaria cliaris); experiment: Experiment 2 foliage treatment: mehishiba; conditions: 4 weeks after treatment
Experimental: as §1

paddy rice = experiment: Experiment 4 flooded soil treatment: injury to paddy rice; conditions: 4 weeks after treatment
From the text: (§2) Paddy soil (clay loam) was put into a pot so as to have a surface area of 1/15500 ares. Uniformly mixed seeds of several kinds of weeds, viz., nobie (barnyardgrass, Echinochloa spp.), broad-leaved weeds, hotarui (bulrush, Scirpus juncoides) and tamagayatsuri (small-flowered umbrellaplant, Cyperus difformis), were sown in the surface layer of the soil in each pot, and then paddy rice seedlings at the two- or three-leaved stage were transplanted into each pot to a depth of 2 cm, and water was fed into each pot so as to provide a 3 cm deep water layer on the soil surface. After 3 days, in other words at the initial stage of germination of nobie (barnyardgrass, Echinochloa spp.), a predetermined amount of a selected compound obtained in a manner analogous to Example 11 in the form of diluted aqueous solution was dropped into the water layer in each pot. After that, the pots were kept in a glass chamber to allow the paddy rice and the weeds to grow, and after the lapse of 4 weeks from the treatment with the selected compounds, the herbicidal effects and the degree of injury to the paddy rice were evaluated. The evaluation of the herbicidal effects was similarly conducted as to that of Experiment 1.

[6] = test system: nobie (barnyardgrass, Echinochloa spp.); experiment: Experiment 4 flooded soil treatment: nobie; conditions: 4 weeks after treatment
From the text: as §2

broad-leaved weeds = experiment: Experiment 4 flooded soil treatment: broad-leaved weeds; conditions: 4 weeks after treatment
From the text: as §2

[7] = test system: hotarui (bulrush, Scirpus juncoides); experiment: Experiment 4 flooded soil treatment: hotarui; conditions: 4 weeks after treatment
From the text: as §2

[8] = test system: tamagayatsuri (small-flowered umbrellaplant, Cyperus difformis); experiment: Experiment 4 flooded soil treatment: tamagayatsuri; conditions: 4 weeks after treatment
From the text: as §2

rice [9] = experiment: Experiment 5 foliage treatment: rice; conditions: foliage spray of wettable powder suspension, evaluated 4 weeks after treatment
Experimental: as §1, with “11,” for “8,”, “as” for “as to”

[10] = test system: cockspur (Panicum crus-galli); experiment: Experiment 5 foliage treatment: cockspur; conditions: foliage spray of wettable powder suspension, evaluated 4 weeks after treatment
Experimental: as §1, with “11,” for “8,”, “as” for “as to”

garden radish [11] = experiment: Experiment 5 foliage treatment: garden radish; conditions: foliage spray of wettable powder suspension, evaluated 4 weeks after treatment
Experimental: as §1, with “11,” for “8,”, “as” for “as to”

[12] = test system: aobiyu (slender amaranth, Amaranthus viridis); experiment: Experiment 5 foliage treatment: aobiyu; conditions: foliage spray of wettable powder suspension, evaluated 4 weeks after treatment
Experimental: as §1, with “11,” for “8,”, “as” for “as to”

[13] = test system: mehishiba (henry crabgrass, Digitaria cliaris); experiment: Experiment 5 foliage treatment: mehishiba; conditions: foliage spray of wettable powder suspension, evaluated 4 weeks after treatment
Experimental: as §1, with “11,” for “8,”, “as” for “as to”

| SMILES | Injury of Paddy (paddy rice; 3.13 g/10a) | Injury of Paddy (paddy rice; 6.25 g/10a) | Herbicidal Effect nobie ([6]; 3.13 g/10a) | Herbicidal Effect nobie ([6]; 6.25 g/10a) | Herbicidal Effect broad-leaved weed (broad-leaved weeds; 3.13 g/10a) | Herbicidal Effect broad-leaved weed (broad-leaved weeds; 6.25 g/10a) | Herbicidal Effect hotarui ([7]; 3.13 g/10a) | Herbicidal Effect hotarui ([7]; 6.25 g/10a) | Herbicidal Effect tamagayatsuri ([8]; 3.13 g/10a) | Herbicidal Effect tamagayatsuri ([8]; 6.25 g/10a) | Herbicidal Effect rice (rice [9]; 40 g/10a) | Herbicidal Effect rice (rice [9]; 80 g/10a) | Herbicidal Effect cockspur ([10]; 40 g/10a) | Herbicidal Effect cockspur ([10]; 80 g/10a) | Herbicidal Effect garden radish (garden radish [11]; 40 g/10a) | Herbicidal Effect garden radish (garden radish [11]; 80 g/10a) | Herbicidal Effect aobiyu ([12]; 40 g/10a) | Herbicidal Effect aobiyu ([12]; 80 g/10a) | Herbicidal Effect mehishiba ([13]; 40 g/10a) | Herbicidal Effect mehishiba ([13]; 80 g/10a) | also measured |
| --- | --- | --- | --- | --- | --- | --- | --- | --- | --- | --- | --- | --- | --- | --- | --- | --- | --- | --- | --- | --- | --- |
| CCCCOC(=O)C1=C(C(=O)N(C(C)=O)c2cc(SCC(=O)OCC)c(Cl)cc2F)CCCC1 [compound 39] | – | – | – | – | – | – | – | – | – | – | – | – | – | – | – | – | – | – | – | – | Herbicidal Effect rice (rice [1]; 40 g/10a): 1; Herbicidal Effect rice (rice [1]; 80 g/10a): 1; Herbicidal Effect cockspur ([2]; 40 g/10a): 1; Herbicidal Effect cockspur ([2]; 80 g/10a): 1; Herbicidal Effect garden radish (garden radish [3]; 40 g/10a): 5; Herbicidal Effect garden radish (garden radish [3]; 80 g/10a): 5; Herbicidal Effect aobiyu ([4]; 40 g/10a): 5; Herbicidal Effect aobiyu ([4]; 80 g/10a): 5; Herbicidal Effect mehishiba ([5]; 40 g/10a): 1; Herbicidal Effect mehishiba ([5]; 80 g/10a): 1 |
| CCCCOC(=O)c1cc(N(C(=O)C2=C(C(=O)OC)CCCC2)C(=O)c2cccnc2)c(F)cc1Cl [compound 66] | 0 | 0 | 5 | 5 | 5 | 5 | 4 | 4 | 4 | 4 | 1 | 1 | 1 | 1 | 4.5 | 5 | 5 | 5 | 1 | 2 | – |
| C#CC(C)Oc1cc(N(C(=O)C2=C(C(=O)OC(C)C)CCCC2)C(=O)c2ccc(Cl)nc2)c(F)cc1Cl (centres unmarked) [compound 68] | 0 | 0.5 | 5 | 5 | 5 | 5 | 4 | 4.5 | 5 | 5 | 1 | 1 | 1 | 1 | 5 | 5 | 5 | 5 | 1 | 1 | – |
| C#CC(C)Oc1cc(N(C(=O)C2=C(C(=O)OCCOC)CCCC2)C(=O)c2ccc(Cl)nc2)c(F)cc1Cl (centres unmarked) [compound 69] | 0.5 | 0.5 | 5 | 5 | 5 | 5 | 4 | 4.5 | 5 | 5 | 1 | 1 | 1 | 1 | 4.5 | 5 | 5 | 5 | 2 | 2 | – |
| C#CC(C)Oc1cc(N(C(=O)C2=C(C(=O)OC)CCCC2)C(=O)c2cccnc2)c(Cl)cc1Cl (centres unmarked) [compound 70] | 0 | 0 | 5 | 5 | 5 | 5 | 4 | 4 | 5 | 5 | 1 | 1 | 1 | 1 | 4 | 5 | 5 | 5 | 2 | 2 | – |
| C#CC(C)Oc1cc(N(C(=O)C2=C(C(=O)OCCOC)CCCC2)C(=O)c2cccnc2)c(Cl)cc1Cl (centres unmarked) [compound 71] | 0 | 0 | 5 | 5 | 5 | 5 | 4 | 4 | 5 | 5 | 1 | 1 | 1 | 1 | 4 | 5 | 5 | 5 | 2 | 2 | – |

Reference: patent publication US6337417B1, “N-phenyltetrahydrophthalamic acid derivatives, methods of producing same, and herbicides containing same as effective components” (Central Glass Co., Ltd., priority 1994, dated 2002)
